Tests used:
EGFR [1] = target: T1, EGFR (Homo sapiens, UniProt P00533, DEL746-750); assay: Cell Degradation 2: EGFR degradation in HCC827 cells, HTRF assay; assay type: cell-based; settings: 16 h treatment, EGFR degradation by HTRF
T1 construct: endogenous in cells; host or cells: HCC827
Experimental: (§1) After 16 h treatment, add 100 μl 1×lysis buffer to each well; seal the plate and incubate 1 hour at room temperature on a plate shaker; Once the cells are lysed, 16 μl diluted (2 μL to 14 μl 1× lysisi buffer) cell lysate are transferred to a PE 384-well HTRF detection plate; 4 μL of pre-mixed HTRF antibodies are added to each well; Cover the plate with a plate sealer, spin 1000 rpm for 1 min, Incubate overnight at room temperature; Read on BMG PheraStar with HTRF protocol (337 nm-665 nm-620 nm).
(§2) The IC50 (DC50) value of a compound can be obtained by fitting the following equation Y=Bottom+(TOP−Bottom)/(1+((IC50/X)^hillslope))
(§3) Wherein, X and Y are known values, and IC50, Hillslope, Top and Bottom are the parameters obtained by fitting with software. Y is the inhibition percentage (calculated from the equation), X is the concentration of the compound; IC50 is the concentration of the compound when the 50% inhibition is reached. The smaller the IC50 value is, the stronger the inhibitory ability of the compound is. Vice versa, the higher the IC50 value is, the weaker the ability the inhibitory ability of the compound is; Hillslope represents the slope of the fitted curve, generally around 1*; Bottom represents the minimum value of the curve obtained by data fitting, which is generally 0%±20%; Top represents the maximum value of the curve obtained by data fitting, which is generally 100%±20%. The experimental data were fitted by calculating and analyzing with Dotmatics data analysis software.

EGFR [2] = target: T2, EGFR (Homo sapiens, UniProt P00533, L858R/T790M); assay: Cell Degradation 1: EGFR degradation in H1975 cells, HTRF assay; assay type: cell-based; settings: 16 h treatment, EGFR degradation by HTRF
T2 construct: endogenous in cells; host or cells: H1975
T2 sequence (P00533 25-1210 T790M/L858R): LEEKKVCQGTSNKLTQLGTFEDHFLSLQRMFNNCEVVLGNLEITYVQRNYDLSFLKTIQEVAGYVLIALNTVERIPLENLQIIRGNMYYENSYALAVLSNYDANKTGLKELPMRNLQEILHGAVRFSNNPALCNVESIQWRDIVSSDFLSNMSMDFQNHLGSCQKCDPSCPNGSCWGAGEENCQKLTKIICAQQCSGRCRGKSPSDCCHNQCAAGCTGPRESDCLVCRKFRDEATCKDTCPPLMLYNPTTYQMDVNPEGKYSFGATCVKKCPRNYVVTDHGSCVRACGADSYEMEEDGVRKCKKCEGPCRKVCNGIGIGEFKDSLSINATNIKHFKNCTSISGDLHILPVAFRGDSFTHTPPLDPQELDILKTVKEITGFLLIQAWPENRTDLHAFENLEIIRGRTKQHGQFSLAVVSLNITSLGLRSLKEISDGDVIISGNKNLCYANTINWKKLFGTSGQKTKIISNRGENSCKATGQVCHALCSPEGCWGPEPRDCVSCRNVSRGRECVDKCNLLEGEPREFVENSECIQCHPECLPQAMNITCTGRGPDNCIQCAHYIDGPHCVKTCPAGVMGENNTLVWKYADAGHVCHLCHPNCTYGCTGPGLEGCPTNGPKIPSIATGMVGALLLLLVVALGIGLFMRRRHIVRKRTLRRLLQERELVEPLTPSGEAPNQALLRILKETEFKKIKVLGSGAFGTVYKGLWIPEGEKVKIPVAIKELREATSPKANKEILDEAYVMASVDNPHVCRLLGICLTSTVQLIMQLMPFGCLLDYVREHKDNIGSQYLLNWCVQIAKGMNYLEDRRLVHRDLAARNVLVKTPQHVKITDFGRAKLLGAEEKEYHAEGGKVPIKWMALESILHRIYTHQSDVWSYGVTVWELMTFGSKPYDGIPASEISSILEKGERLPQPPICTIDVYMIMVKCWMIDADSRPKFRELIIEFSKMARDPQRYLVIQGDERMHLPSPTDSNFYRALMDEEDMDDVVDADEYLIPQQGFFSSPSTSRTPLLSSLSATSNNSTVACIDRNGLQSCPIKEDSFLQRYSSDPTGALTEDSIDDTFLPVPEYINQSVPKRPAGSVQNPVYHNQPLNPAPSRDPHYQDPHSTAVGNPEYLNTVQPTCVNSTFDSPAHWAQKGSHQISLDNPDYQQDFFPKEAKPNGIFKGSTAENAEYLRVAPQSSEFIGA
Experimental: as §1, with “16” for “16 μl diluted (2”, “of” for “to 14 μl 1× lysisi buffer)”
as §2, §3

T1 sequence (P00533 with tags, fused parts or gaps DEL746-750): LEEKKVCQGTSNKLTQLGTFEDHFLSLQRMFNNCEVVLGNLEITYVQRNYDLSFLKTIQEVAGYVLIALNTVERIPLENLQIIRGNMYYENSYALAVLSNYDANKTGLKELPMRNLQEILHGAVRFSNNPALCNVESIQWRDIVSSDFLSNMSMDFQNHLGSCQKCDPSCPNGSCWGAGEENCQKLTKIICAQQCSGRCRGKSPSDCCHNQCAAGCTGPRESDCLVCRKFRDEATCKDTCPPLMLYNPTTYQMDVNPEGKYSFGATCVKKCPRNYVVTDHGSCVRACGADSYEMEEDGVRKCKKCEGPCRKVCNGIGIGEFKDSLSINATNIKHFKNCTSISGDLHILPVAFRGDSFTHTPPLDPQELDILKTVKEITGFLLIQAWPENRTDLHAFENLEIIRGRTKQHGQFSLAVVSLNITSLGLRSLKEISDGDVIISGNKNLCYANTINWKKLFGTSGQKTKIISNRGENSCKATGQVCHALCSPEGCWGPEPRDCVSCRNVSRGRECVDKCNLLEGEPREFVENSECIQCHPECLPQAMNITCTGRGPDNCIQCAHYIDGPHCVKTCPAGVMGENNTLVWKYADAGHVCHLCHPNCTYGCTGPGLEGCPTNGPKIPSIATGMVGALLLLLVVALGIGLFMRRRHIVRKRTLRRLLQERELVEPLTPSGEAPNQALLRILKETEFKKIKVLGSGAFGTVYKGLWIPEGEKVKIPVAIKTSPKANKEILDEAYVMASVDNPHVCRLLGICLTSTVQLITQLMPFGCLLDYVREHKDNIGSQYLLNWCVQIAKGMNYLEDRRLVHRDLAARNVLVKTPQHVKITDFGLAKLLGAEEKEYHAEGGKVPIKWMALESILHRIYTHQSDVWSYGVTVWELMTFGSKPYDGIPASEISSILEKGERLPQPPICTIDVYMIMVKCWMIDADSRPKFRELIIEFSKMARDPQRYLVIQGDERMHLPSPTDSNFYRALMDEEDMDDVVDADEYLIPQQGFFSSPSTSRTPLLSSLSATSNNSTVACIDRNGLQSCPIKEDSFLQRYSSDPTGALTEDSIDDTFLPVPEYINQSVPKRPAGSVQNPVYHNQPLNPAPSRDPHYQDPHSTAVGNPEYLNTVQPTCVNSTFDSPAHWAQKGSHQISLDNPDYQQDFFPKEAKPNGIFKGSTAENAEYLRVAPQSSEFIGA
T1 sequence (Q96SW2 whole entry partner): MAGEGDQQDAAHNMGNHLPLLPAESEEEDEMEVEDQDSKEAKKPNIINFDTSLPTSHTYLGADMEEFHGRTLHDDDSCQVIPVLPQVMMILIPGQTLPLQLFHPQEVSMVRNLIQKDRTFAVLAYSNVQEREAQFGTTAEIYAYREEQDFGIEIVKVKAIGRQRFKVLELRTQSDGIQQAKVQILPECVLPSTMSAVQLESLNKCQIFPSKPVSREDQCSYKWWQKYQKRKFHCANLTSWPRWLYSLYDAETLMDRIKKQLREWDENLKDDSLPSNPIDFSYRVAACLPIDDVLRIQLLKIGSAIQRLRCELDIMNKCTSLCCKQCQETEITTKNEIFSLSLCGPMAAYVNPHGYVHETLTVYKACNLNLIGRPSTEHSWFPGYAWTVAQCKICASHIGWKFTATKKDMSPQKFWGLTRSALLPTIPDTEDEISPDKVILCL

Structure (SMILES) | DC50 (EGFR [1]) [nM] | DC50 (EGFR [2]) [nM]
CS(=O)(=O)N1CCc2cccc(Nc3nc(Nc4ccc(N5CCC(N6CCN(CCC7CCN(c8ccc(C9CCC(=O)NC9=O)c(F)c8)CC7)CC6)CC5)c5c4OCC5)ncc3Cl)c21 (stereo not drawn) [Example 51, 3-(4-(4-(2-(4-(1-(7-((5-chloro-4-((1-(methylsulfonyl)indolin-7-yl)amino)pyrimidin-2-yl)amino)-2,3-dihydrobenzofuran-4-yl)piperidin-4-yl)piperazin-1-yl)ethyl)piperidin-1-yl)-2-fluorophenyl)piperidine-2,6-dione] | 12.4 | 19.5
COc1cc(Nc2nc(Nc3cccc4c3N(S(C)(=O)=O)CC4)c3cc[nH]c3n2)ccc1N1CCC(N2CCN(C(=O)[C@H]3CCN(c4ccc5c(c4)C(=O)N(C4CCC(=O)NC4=O)C5=O)C3)CC2)CC1 (stereo partly drawn) [Example 74, 2-(2,6-dioxopiperidin-3-yl)-5-((S)-3-(4-(1-(2-methoxy-4-((4-((1-(methylsulfonyl)indolin-7-yl)amino)-7H-pyrrolo[2,3-d]pyrimidin-2-yl)amino)phenyl)piperidin-4-yl)piperazine-1-carbonyl)pyrrolidin-1-yl)isoindoline-1,3-dione] | > 10000 | 4.7
CN(CCCC1CN(c2ccc3c(c2)C(=O)N(C2CCC(=O)NC2=O)C3=O)C1)C1CCN(c2ccc(Nc3ncc(Cl)c(Nc4cccc5c4N(S(C)(=O)=O)CC5)n3)c3c2CCO3)CC1 (stereo not drawn) [Example 50, 5-(3-(3-((1-(7-((5-chloro-4-((1-(methylsulfonyl)indolin-7-yl)amino)pyrimidin-2-yl)amino)-2,3-dihydrobenzofuran-4-yl)piperidin-4-yl)(methyl)amino)propyl)azetidin-1-yl)-2-(2,6-dioxopiperidin-3-yl)isoindoline-1,3-dione] | 36.9 | 7.5
COc1cc(N2CCC(N3CCN(CCC4CCN(c5ccc(C6CCC(=O)NC6=O)c(F)c5)CC4)CC3)CC2)c(C)cc1Nc1ncc(Br)c(Nc2cccc3c2N(S(C)(=O)=O)CC3)n1 (stereo not drawn) [Example 90, 3-(4-(4-(2-(4-(1-(4-((5-bromo-4-((1-(methylsulfonyl)indolin-7-yl)amino)pyrimidin-2-yl)amino)-5-methoxy-2-methylphenyl)piperidin-4-yl)piperazin-1-yl)ethyl)piperidin-1-yl)-2-fluorophenyl)piperidine-2,6-dione] | 40.2 | 96.4
COc1cc(N2CCC(N3CCN(CCc4ccc(C5CCC(=O)NC5=O)cc4)CC3)CC2)ccc1Nc1nc(Nc2cccc3c2N(S(C)(=O)=O)CC3)c2cc[nH]c2n1 (stereo not drawn) [Example 21, 3-(4-(2-(4-(1-(3-methoxy-4-((4-((1-(methylsulfonyl)indolin-7-yl)amino)-7H-pyrrolo[2,3-d]pyrimidin-2-yl)amino)phenyl)piperidin-4-yl)piperazin-1-yl)ethyl)phenyl)piperidine-2,6-dione] | 113 | 38.4
CN(CCC1CCN(c2ccc(C3CCC(=O)NC3=O)c(F)c2)CC1)C1CCN(c2ccc(Nc3ncc(Cl)c(Nc4cccc5c4N(S(C)(=O)=O)CC5)n3)c3c2CCO3)CC1 (stereo not drawn) [Example 46, 3-(4-(4-(2-((1-(7-((5-chloro-4-((1-(methylsulfonyl)indolin-7-yl)amino)pyrimidin-2-yl)amino)-2,3-dihydrobenzofuran-4-yl)piperidin-4-yl)(methyl)amino)ethyl)piperidin-1-yl)-2-fluorophenyl)piperidine-2,6-dione] | 32.2 | 23.2
CN(CCN1CCN(C2CCN(c3ccc(Nc4nc(Nc5cccc6c5N(S(C)(=O)=O)CC6)c5cc[nH]c5n4)cc3F)CC2)CC1)c1cccc(C2CCC(=O)NC2=O)c1 (stereo not drawn) [Example 6, 3-(3-((2-(4-(1-(2-fluoro-4-((4-((1-(methylsulfonyl)indolin-7-yl)amino)-7H-pyrrolo[2,3-d]pyrimidin-2-yl)amino)phenyl)piperidin-4-yl)piperazin-1-yl)ethyl)(methyl)amino)phenyl)piperidine-2,6-dione] | 29.3 | 7.4
COc1cc(CCN2CCN(C3CCN(c4ccc(Nc5nc(Nc6cccc7c6N(S(C)(=O)=O)CC7)c6cc[nH]c6n5)cc4F)CC3)CC2)ccc1C1CCC(=O)NC1=O (stereo not drawn) [Example 2, 3-(4-(2-(4-(1-(2-fluoro-4-((4-((1-(methylsulfonyl)indolin-7-yl)amino)-7H-pyrrolo[2,3-d]pyrimidin-2-yl)amino)phenyl)piperidin-4-yl)piperazin-1-yl)ethyl)-2-methoxyphenyl)piperidine-2,6-dione] | 33.4 | 36.9
CS(=O)(=O)N1CCc2cccc(Nc3nc(Nc4ccc(N5CCC(N6CCN(C(=O)CC7CCN(c8ccc(C9CCC(=O)NC9=O)cc8)CC7)CC6)CC5)c(F)c4)nc4[nH]ccc34)c21 (stereo not drawn) [Example 12, 3-(4-(4-(2-(4-(1-(2-fluoro-4-((4-((1-(methylsulfonyl)indolin-7-yl)amino)-7H-pyrrolo[2,3-d]pyrimidin-2-yl)amino)phenyl)piperidin-4-yl)piperazin-1-yl)-2-oxoethyl)piperidin-1-yl)phenyl)piperidine-2,6-dione] | 33.5 | 12.4
CS(=O)(=O)N1CCc2cccc(Nc3nc(Nc4ccc(N5CCC(N6CCN(C(=O)CCN7CCC(c8ccc(C9CCC(=O)NC9=O)cc8)CC7)CC6)CC5)c(F)c4)nc4[nH]ccc34)c21 (stereo not drawn) [Example 11, 3-(4-(1-(3-(4-(1-(2-fluoro-4-((4-((1-(methylsulfonyl)indolin-7-yl)amino)-7H-pyrrolo[2,3-d]pyrimidin-2-yl)amino)phenyl)piperidin-4-yl)piperazin-1-yl)-3-oxopropyl)piperidin-4-yl)phenyl)piperidine-2,6-dione] | 123 | 23.7
CS(=O)(=O)N1CCc2cccc(Nc3nc(Nc4ccc(N5CCC(N6CCN(C(=O)CC7CN(c8ccc9c(c8)C(=O)N(C8CCC(=O)NC8=O)C9=O)C7)CC6)CC5)c(F)c4)nc4[nH]ccc34)c21 (stereo not drawn) [Example 61, 2-(2,6-dioxopiperidin-3-yl)-5-(3-(2-(4-(1-(2-fluoro-4-((4-((1-(methylsulfonyl)indolin-7-yl)amino)-7H-pyrrolo[2,3-d]pyrimidin-2-yl)amino)phenyl)piperidin-4-yl)piperazin-1-yl)-2-oxoethyl)azetidin-1-yl)isoindoline-1,3-dione] | 19.4 | 5.7
CS(=O)(=O)N1CCc2cccc(Nc3nc(Nc4ccc(N5CCC(N6CCN(C(=O)C7CN(c8ccc(C9CCC(=O)NC9=O)cc8)C7)CC6)CC5)c(F)c4)nc4[nH]ccc34)c21 (stereo not drawn) [Example 58, 3-(4-(3-(4-(1-(2-fluoro-4-((4-((1-(methylsulfonyl)indolin-7-yl)amino)-7H-pyrrolo[2,3-d]pyrimidin-2-yl)amino)phenyl)piperidin-4-yl)piperazine-1-carbonyl)azetidin-1-yl)phenyl)piperidine-2,6-dione] | 17.7 | 2.8
CS(=O)(=O)N1CCc2cccc(Nc3nc(Nc4ccc(N5CCC(N6CCN(CCC7CCN(c8ccc9c(c8)C(=O)N(C8CCC(=O)NC8=O)C9=O)CC7)CC6)CC5)c(F)c4)nc4[nH]ccc34)c21 (stereo not drawn) [Example 17, 2-(2,6-dioxopiperidin-3-yl)-5-(4-(2-(4-(1-(2-fluoro-4-((4-((1-(methylsulfonyl)indolin-7-yl)amino)-7H-pyrrolo[2,3-d]pyrimidin-2-yl)amino)phenyl)piperidin-4-yl)piperazin-1-yl)ethyl)piperidin-1-yl)isoindoline-1,3-dione] | 30.8 | 9.6
CS(=O)(=O)N1CCc2cccc(Nc3nc(Nc4ccc(N5CCC(N6CCN(CCCC7CN(c8ccc9c(c8)C(=O)N(C8CCC(=O)NC8=O)C9=O)C7)CC6)CC5)c5c4OCC5)ncc3Cl)c21 (stereo not drawn) [Example 55, 5-(3-(3-(4-(1-(7-((5-chloro-4-((1-(methylsulfonyl)indolin-7-yl)amino)pyrimidin-2-yl)amino)-2,3-dihydrobenzofuran-4-yl)piperidin-4-yl)piperazin-1-yl)propyl)azetidin-1-yl)-2-(2,6-dioxopiperidin-3-yl)isoindoline-1,3-dione] | 11.9 | 9.6
COc1cc(Nc2nc(Nc3cccc4c3N(S(C)(=O)=O)CC4)c3cc[nH]c3n2)ccc1N1CCC(N2CCN(C(=O)C3CN(c4ccc5c(c4)C(=O)N(C4CCC(=O)NC4=O)C5=O)C3)CC2)CC1 (stereo not drawn) [Example 73, 2-(2,6-dioxopiperidin-3-yl)-5-(3-(4-(1-(2-methoxy-4-((4-((1-(methylsulfonyl)indolin-7-yl)amino)-7H-pyrrolo[2,3-d]pyrimidin-2-yl)amino)phenyl)piperidin-4-yl)piperazine-1-carbonyl)azetidin-1-yl)isoindoline-1,3-dione] | 1170 | 3.4
